Source: PubChem BioAssay (NCI)
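Grown in 96-well plates, cells were treated for 48 hours with each compound at five concentrations. Insufficient inhibition: endpoint recorded as highest concentration tested. TGI denotes the concentration required for complete inhibition of growth.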

System: HOP-18 NSCLC
Assay: growth of human tumour cells (NCI), 48 h

## c1ccc([P+](Cc2csnn2)(c2ccccc2)c2ccccc2)cc1
  TGI: > 100 µM
